# Results as given in US20240010993A1, “CELL CULTURE CHAMBER AND METHOD FOR CULTURING CELLS AND FOR THE IN VITRO PRODUCTION OF CELL LAYERS AND ORGAN MODELS” (Dynamic42 GmbH, priority 2021, published 2024).
# Experiments:
# [1] = cited from earlier work
# [2] = adsorption effect of PBT in cell culture chambers (active substance adsorption); type: physicochemical; settings: after 24 hours; both embodiments Chip PBT-BC1 and Chip PBT-BC2; control stock solution propiconazole 100 μM, troglitazone 64 μM
# Protocol: After an incubation period of 24 h, at least 80% of the starting concentration of the propiconazole or the troglitazone is detectable in the culture medium (cf. FIG. 3A, FIG. 3B).
# FIGS. 3A and 3B show results of experiments on the adsorption effect of PBT in two cell culture chambers 1 according to the disclosure of different designs. The designation, “Chip PBT-BC1,” denotes a first embodiment of the cell culture chamber 1, and “Chip PBT-BC2” a second embodiment. The first embodiment has a width B of 34.6 mm, a depth T of 6.56 mm, and a height H of 0.7 mm for the first channel 3. The second channel 4 has the dimensions of 44.8 mm, 3.6 mm, and 0.8 mm (W/D/H). The corresponding dimensions for the second embodiment, “Chip PBT-BC2,” of the cell culture chamber 1 are 34.6 mm, 8.06 mm, and 0.7 mm (W/D/H) for the first channel 3 and 49.4 mm, 5.61 mm, and 1.0 mm (B/T/H) for the second channel 4.
# In comparison, a control in the form of a stock solution (100 μM) with propiconazole is given. […] In each case, it can be seen from the two graphics that, in both embodiments of the cell culture chamber 1 according to the disclosure, more than 85% of the propiconazole (FIG. 3A) and more than 80% of the troglitazone (FIG. 3B) in the culture medium 7 could be detected even after 24 hours.
# [3] = after 24 hours in PDMS chips; binds irreversibly to PDMS; cited from earlier work
# [4] = test system: macrophages in co-culture with liver sinusoidal endothelial cells and hepatocytes; experiment: LPS addition to liver model to check activatability of immune cells (cytokine release); type: cell-based; settings: LPS added at the tenth and fourteenth day of culture; FIG. 8
# Protocol: In addition, lipopolysaccharide (LPS) was added to some samples at the tenth day and the fourteenth day to check the activatability of immune cells (macrophages) contained in the liver model, and the respective reactions were shown. The addition of LPS as a so-called pyrogenic substance represents a test for endotoxins that is customary in the art. Immune cells such as macrophages respond to this stimulus with increased release of cytokines. […] It can be deduced from this that macrophages in co-culture with the investigated liver sinusoidal endothelial cells and hepatocytes were capable of reacting with an immune response to an endotoxin even after 10 or after 14 days. This is important for being able to detect immune cell-mediated side effects of drugs.
compound,measurement,setting,value
Cc1c(C)c2c(c(C)c1O)CCC(C)(COc1ccc(CC3SC(=O)NC3=O)cc1)O2 (stereo not shown) [troglitazone],log P,[1],3.60
CCCC1COC(Cn2cncn2)(c2ccc(Cl)cc2Cl)O1 (stereo not shown) [propiconazole],percentage (RTC - ratio to control) remaining and detectable in the culture medium,[2],more than 85%
same,detected fraction of the starting concentration in the culture medium,[3],less than 30%
lipopolysaccharide [LPS],concentration of IL-1beta after the addition of LPS,[4],distinct increase
